From patent US20220160703A1, “TUMOR-SELECTIVE COMBINATION THERAPY” (The Board of Regents of The University of Texas System, priority 2019, published 2022)

System: tumor-infiltrating immune cells
Assay: Flow cytometric analysis of immune cells in tumor and organs
Type: in vivo, mice
Protocol: (FIGS. 11A-B) Single cells were conducted from MC38 (FIG. 11A) or TC-1 (FIG. 11B) tumor tissues after 3 days of β-lap treatment. The frequency of CD11b+ Gr1+ cells were then analyzed by flow cytometry. (FIGS. 11C-D) C57BL/6 WT mice (n=5/group) were inoculated subcutaneously (s.c.) with 6×10^5 MC38 (FIG. 11C) or 1×10^5 TC-1 (FIG. 11D) cells and treated intratumorally (i.t.) with 0.3 (mg) of β-lap or vehicle on day 9, day 12, and day 15. Anti-Ly6G blocking Ab (200 μg) were intraperitoneally administered twice a week, starting on day 8. Tumor growth was monitored twice a week. Data are shown as mean±SEM from two to three independent experiments. **P<0.01, ***P<0.001, ****P<0.0001 determined by two-way ANOVA.
(FIG. 18A) B16 NQO1 #1 cells were subcutaneously transplanted into C57BL/6 WT and Rag1KO mice (n=5/group), respectively. Tumor bearing mice were treated with β-lap (0.3 mg, i.t.) every other day for four times. (FIG. 18B) Changes of the immune cells in the tumor microenvironment 7 days after β-lap treatment. […] 7 days after the last treatment, tumor tissue was removed and digested, and immune cells were analyzed with flow cytometer (unpaired student t-test was used to analyze the significance of changes, *P<0.05, **P<0.01). […]
6×10^5 MC38 cells were subcutaneously transplanted into C57BL/6 mice (n=3/group). […] (FIG. 23B) Quantification of immune populations from vehicle and IB-DNQ treated tumors. […] CFSE labeled splenocytes were treated with lethal dose IB-DNQ for 4 h followed by washing and stimulation with anti-CD3 (1 μg/ml) and anti-CD28 (2 μg/ml) for 48 h, proliferative CD8 T cells were then analyzed by flow cytometry assay. […] 24 h later, cell death was analyzed by flow cytometry. […]
Naïve (n=5/group) and IB-DNQ-cured MC38 tumor-free (n=7/group) C57BL/6 mice were re-challenged subcutaneously with 3×10^6 MC38 cells on the opposite site from the primary tumor 60 days after complete rejection. […] (FIG. 26F) DCs from LNs of tumor-free (TF) or tumor-bearing mice were stimulated with antigen induced by IB-DNQ (1 μM) for 5 h, then CD44 expression on DCs was assessed.

CC1(C)CCC2=C(O1)c1ccccc1C(=O)C2=O [β-lap, β-lapachone]
T cells in treated tumors (MC38, 7 days after β-lap 0.3 mg i.t. two times): increase in CD4^+ and CD8^+ T cells
CD45+ cells, CD8+ T cells and CD8+ T cell:Treg cell ratio in tumor tissues (MC38-OVA, 12 days after initial treatment): significant increase
tumor-infiltrating neutrophils (CD11b+Gr1+) (after 3 days of β-lap treatment): significantly increased
